Measured values as given in patent publication US8603527B2, “Pharmaceutical formulations of a substituted diaminopurine” (Signal Pharmaceuticals, LLC, priority 2010, dated 2013).
Read-outs that look alike come from different tables or passages of the source.

Experiments:
[1] = Oral developmental toxicity study in the rabbit; conditions: female, New Zealand White Hra:(NZW)SPF, rabbit, in vivo, oral
Text: (§1) Additionally, four groups of five animals/group served as toxicokinetic (TK) animals and received the vehicle or test article in the same manner and dose levels as the main study groups. All time-mated females arrived at the laboratory on GD 0, the day evidence of mating was observed.

[2] = system: time-mated female New Zealand White Hra:(NZW)SPF rabbits; assay: Oral developmental toxicity study in the rabbit; conditions: rabbits
Text: as §1

[3] = Toxicokinetics in pregnant female rats; assay type: in vivo, rat; conditions: for concentration at 2 h / AUC / Cmax / Kp: female, rat; for concentration at 2 h / Kp: oral; for concentration at 2 h / Kp / Fetus concentration (pooled fetal blood samples): rats; for concentration at 2 h / Fetus concentration (pooled fetal blood samples): 2 hours after dosing on Gestation Day 17; for AUC / Cmax: pregnant rats; for Kp: fetal plasma / maternal plasma, Gestation Day 17, calculated from individual ratios, read-out: Fetal:Maternal Plasma Ratio
Procedure: Compound I was readily absorbed in pregnant rats following daily oral administration of Compound I for 11 days (GD 6-16). Exposures for Compound I increased in an approximately dose-proportional manner from 25 to 100 mg/kg/day.

[4] = CD [Crl:CD(SD)], plasma, 25 mg/kg/day, 25 mg/kg/d oral, Gestation Day 16
[5] = CD [Crl:CD(SD)], plasma, 50 mg/kg/day, 50 mg/kg/d oral, Gestation Day 16
[6] = CD [Crl:CD(SD)], plasma, 100 mg/kg/day, 100 mg/kg/d oral, Gestation Day 16
[7] = Crl:CD(SD), plasma, 25 mg/kg/day, 25 mg/kg/d oral, Gestation Day 6
[8] = Crl:CD(SD), plasma, 50 mg/kg/day, 50 mg/kg/d oral, Gestation Day 6
[9] = Crl:CD(SD), plasma, 100 mg/kg/day, 100 mg/kg/d oral, Gestation Day 6

Which NOAEL [1] does the source give for `O[C@H]1CC[C@H](Nc2ncc3nc(Nc4c(F)cc(F)cc4F)n([C@H]4CCOC4)c3n2)CC1` [Compound I, 4-((9-((3S)-tetrahydro-3-furanyl)-8-((2,4,6-trifluorophenyl)amino)-9H-purin-2-yl)amino)-trans-cyclohexanol] here?
Its NOAEL is 20 mg/kg/day.

What about the “NOEL for developmental toxicity” value [2] of the same compound?
Its value is 20 mg/kg/day.

What about the “doses at which developmental effects were observed” value [2] of the same compound?
The value was 40 mg/kg/day.

And the teratogenicity [2]?
The teratogenicity was “teratogenic”.

And the “litters with viable fetuses for evaluation on GD 29” value (shortened to “litters with viable fetuses”) ([2]; 10 mg/kg/day)?
Its value is 19.

What about the “main study pregnancy index” value ([2]; 10 mg/kg/day) of the same compound?
The value was 95%.

What about the “litters with viable fetuses” value ([2]; 20 mg/kg/day) of the same compound?
Its value is 20.

And the “main study pregnancy index” value ([2]; 20 mg/kg/day)?
The value was 100%.

And the “litters with viable fetuses” value ([2]; 40 mg/kg/day)?
The value was 10.

And the “main study pregnancy index” value ([2]; 40 mg/kg/day)?
The value was 95%.

What about the “litters containing one or more fetuses with a malformation” value ([2]; 40 mg/kg/day, GD 29, controls 25%) of the same compound?
The value was 70%.

What about the concentration at 2 h ([3]; CD [Crl:CD(SD)], fetal blood (pooled), 25 mg/kg/day, 25 mg/kg/d, read-out: Fetus concentration (pooled fetal blood samples)) of the same compound?
The concentration at 2 h was 897 ng/mL.

And the AUC [3, 4]?
The AUC was 19700 ng·h/mL.

And the Cmax [3, 4]?
The Cmax was 1930 ng/mL.

And the AUC [3, 5]?
The AUC was 42300 ng·h/mL.

And the Cmax [3, 5]?
The Cmax was 4210 ng/mL.

What about the AUC [3, 6] of the same compound?
Its AUC is 96900 ng·h/mL.

What about the Cmax [3, 6] of the same compound?
The Cmax was 8130 ng/mL.

What about the concentration at 2 h ([3]; CD [Crl:CD(SD)], plasma, 25 mg/kg/day, 25 mg/kg/d, read-out: Dam plasma concentration) of the same compound?
The concentration at 2 h was 1520 ng/mL.

And the concentration at 2 h ([3]; CD [Crl:CD(SD)], plasma, 50 mg/kg/day, 50 mg/kg/d, read-out: Dam plasma concentration)?
Its concentration at 2 h is 3410 ng/mL.

What about the concentration at 2 h ([3]; CD [Crl:CD(SD)], plasma, 100 mg/kg/day, 100 mg/kg/d, read-out: Dam plasma concentration) of the same compound?
The concentration at 2 h was 6650 ng/mL.

And the Kp ([3]; Crl:CD(SD), 25 mg/kg/day, 25 mg/kg/d)?
The Kp was 0.59.

What about the Kp ([3]; Crl:CD(SD), 50 mg/kg/day, 50 mg/kg/d) of the same compound?
The Kp was 0.61.

And the Kp ([3]; Crl:CD(SD), 100 mg/kg/day, 100 mg/kg/d)?
Its Kp is 0.61.

And the AUC [3, 7]?
Its AUC is 19500 ng·h/mL.

And the Cmax [3, 7]?
Its Cmax is 2420 ng/mL.

What about the AUC [3, 8] of the same compound?
Its AUC is 49500 ng·h/mL.

What about the Cmax [3, 8] of the same compound?
Its Cmax is 3920 ng/mL.

And the AUC [3, 9]?
Its AUC is 102000 ng·h/mL.

What about the Cmax [3, 9] of the same compound?
Its Cmax is 6790 ng/mL.

What about the “maternal AUC as fold of human AUC” value ([3]; rats at LOEL 25 mg/kg/day vs human 100 mg BID) of the same compound?
The value was ~0.8 fold.

And the “maternal AUC as fold of human AUC” value ([3]; rats at LOEL 25 mg/kg/day vs human 200 mg BID)?
Its value is ~0.4 fold.

And the “Fetus concentration (pooled fetal blood samples)” value ([3]; 50 mg/kg/d)?
The value was 2115 ng/mL.

What about the “Fetus concentration (pooled fetal blood samples)” value ([3]; 100 mg/kg/d) of the same compound?
Its value is 4012 ng/mL.
